Test results published in patent US20220105029A1, “BIODEGRADABLE CHITOSAN MICRONEEDLE PATCH FOR TRANSDERMAL DELIVERY FOR LIVESTOCK PAIN MANAGEMENT” (THE BOARD OF TRUSTEES OF THE UNIVERSITY OF ARKANSAS, priority 2020, published 2022).

Experiments:
[1] = Solubility of meloxicam in solvents; type: physicochemical
[2] = cited from earlier work

- solubility in acetic acid [1]: not soluble
Structure (SMILES): Cc1cnc(NC(=O)C2=C(O)c3ccccc3S(=O)(=O)N2C)s1 [meloxicam]
- solubility in acids [2]: not dissolving in acids
- solubility in dimethyl sulfoxide (DMSO) [2]: dissolves completely
